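Step 1: Grow cells in 96-well plates. Step 2: Expose to compound for 48 hours at 5 concentrations. Step 3: Interpolate endpoints linearly; if unreached, use highest concentration. TGI is the concentration that stops growth completely.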
What was measured:
Assay in all cases: NCI tumour cell line growth inhibition, 48 h
HCT-116 colon = tested on: HCT-116 colon
MDA-N = tested on: MDA-N
SF-539 CNS = tested on: SF-539 CNS
TK-10 renal = tested on: TK-10 renal
OVCAR-3 ovarian = tested on: OVCAR-3 ovarian
SNB-19 CNS = tested on: SNB-19 CNS
NCI-H460 lung = tested on: NCI-H460 lung
SF-268 CNS = tested on: SF-268 CNS
SNB-75 CNS = tested on: SNB-75 CNS
UACC-62 melanoma = tested on: UACC-62 melanoma
SW-620 colon = tested on: SW-620 colon
HOP-62 NSCLC = tested on: HOP-62 NSCLC
MALME-3M melanoma = tested on: MALME-3M melanoma
NCI-H23 lung = tested on: NCI-H23 lung
HS 578T breast = tested on: HS 578T breast
IGROV1 ovarian = tested on: IGROV1 ovarian
SK-MEL-5 melanoma = tested on: SK-MEL-5 melanoma
LOX IMVI melanoma = tested on: LOX IMVI melanoma
ACHN renal = tested on: ACHN renal
DU-145 prostate = tested on: DU-145 prostate
786-0 renal = tested on: 786-0 renal
HOP-92 NSCLC = tested on: HOP-92 NSCLC
A549 NSCLC = tested on: A549 NSCLC
SR leukemia = tested on: SR leukemia
SF-295 CNS = tested on: SF-295 CNS
K-562 leukemia = tested on: K-562 leukemia
U251 CNS = tested on: U251 CNS
MDA-MB-231 breast = tested on: MDA-MB-231 breast
HL-60(TB) leukemia = tested on: HL-60(TB) leukemia
T-47D breast = tested on: T-47D breast
OVCAR-8 ovarian = tested on: OVCAR-8 ovarian
CAKI-1 renal = tested on: CAKI-1 renal
RXF 393 renal = tested on: RXF 393 renal
EKVX NSCLC = tested on: EKVX NSCLC
M14 melanoma = tested on: M14 melanoma
SK-OV-3 ovarian = tested on: SK-OV-3 ovarian
RPMI-8226 leukemia = tested on: RPMI-8226 leukemia
SN12C renal = tested on: SN12C renal
SK-MEL-28 melanoma = tested on: SK-MEL-28 melanoma
UACC-257 melanoma = tested on: UACC-257 melanoma
HCC-2998 colon = tested on: HCC-2998 colon
PC-3 prostate = tested on: PC-3 prostate
MOLT-4 leukemia = tested on: MOLT-4 leukemia
HT29 colon = tested on: HT29 colon
SK-MEL-2 melanoma = tested on: SK-MEL-2 melanoma
COLO 205 colon = tested on: COLO 205 colon
KM12 colon = tested on: KM12 colon
OVCAR-4 ovarian = tested on: OVCAR-4 ovarian
OVCAR-5 ovarian = tested on: OVCAR-5 ovarian
A498 renal = tested on: A498 renal
MCF7 breast = tested on: MCF7 breast
NCI-H226 lung = tested on: NCI-H226 lung
NCI/ADR-RES ovarian = tested on: NCI/ADR-RES ovarian
MDA-MB-435 = tested on: MDA-MB-435
UO-31 renal = tested on: UO-31 renal
NCI-H522 lung = tested on: NCI-H522 lung
CCRF-CEM leukemia = tested on: CCRF-CEM leukemia
BT-549 breast = tested on: BT-549 breast

## O=c1oc2ccccc2c(O)c1/C=N\c1nc(-c2ccccc2)cs1
HCT-116 colon
  TGI: 22 µM
MDA-N
  TGI: 16 µM
SF-539 CNS
  TGI: 6.39 µM
TK-10 renal
  TGI: 7.58 µM
OVCAR-3 ovarian
  TGI: 30.8 µM
SNB-19 CNS
  TGI: 62.4 µM
NCI-H460 lung
  TGI: > 100 µM
SF-268 CNS
  TGI: 31.1 µM
SNB-75 CNS
  TGI: 21.6 µM
UACC-62 melanoma
  TGI: 19.3 µM
SW-620 colon
  TGI: 16.2 µM
HOP-62 NSCLC
  TGI: 64.4 µM
MALME-3M melanoma
  TGI: 27.3 µM
NCI-H23 lung
  TGI: 46.9 µM
HS 578T breast
  TGI: 89.7 µM
IGROV1 ovarian
  TGI: 27.8 µM
SK-MEL-5 melanoma
  TGI: 9.65 µM
LOX IMVI melanoma
  TGI: 23.6 µM
ACHN renal
  TGI: 24 µM
DU-145 prostate
  TGI: 30.8 µM
786-0 renal
  TGI: 40.2 µM
HOP-92 NSCLC
  TGI: 25.2 µM
A549 NSCLC
  TGI: > 100 µM
SR leukemia
  TGI: 5.31 µM
SF-295 CNS
  TGI: 69.2 µM
K-562 leukemia
  TGI: > 100 µM
U251 CNS
  TGI: 24.9 µM
MDA-MB-231 breast
  TGI: 54.8 µM
HL-60(TB) leukemia
  TGI: 4.01 µM
T-47D breast
  TGI: 47.1 µM
OVCAR-8 ovarian
  TGI: > 100 µM
CAKI-1 renal
  TGI: 12.2 µM
RXF 393 renal
  TGI: 26.9 µM
EKVX NSCLC
  TGI: 42.6 µM
M14 melanoma
  TGI: 16.2 µM
SK-OV-3 ovarian
  TGI: > 100 µM
RPMI-8226 leukemia
  TGI: 39.5 µM
SN12C renal
  TGI: 23.1 µM
SK-MEL-28 melanoma
  TGI: 31.1 µM
UACC-257 melanoma
  TGI: 23 µM
HCC-2998 colon
  TGI: > 100 µM
PC-3 prostate
  TGI: 31.2 µM
MOLT-4 leukemia
  TGI: 7.03 µM
HT29 colon
  TGI: 32 µM
SK-MEL-2 melanoma
  TGI: 36 µM
COLO 205 colon
  TGI: 11.5 µM
KM12 colon
  TGI: 39.1 µM
OVCAR-4 ovarian
  TGI: > 100 µM
OVCAR-5 ovarian
  TGI: 35.1 µM
A498 renal
  TGI: > 100 µM
MCF7 breast
  TGI: 14.1 µM
NCI-H226 lung
  TGI: 23 µM
NCI/ADR-RES ovarian
  TGI: 63.5 µM
MDA-MB-435
  TGI: 20.6 µM
UO-31 renal
  TGI: 20.4 µM
NCI-H522 lung
  TGI: 5.71 µM
CCRF-CEM leukemia
  TGI: 9.74 µM

## COc1cc(C2C3=C(COC3=O)OC(C)(C)Oc3cc4c(cc32)OCO4)cc(OC)c1OC (centres undefined)
HCT-116 colon
  TGI: 6.65 µM
MDA-N
  TGI: 3.56 µM
SF-539 CNS
  TGI: 0.582 µM
TK-10 renal
  TGI: > 100 µM
NCI-H460 lung
  TGI: > 100 µM
BT-549 breast
  TGI: > 100 µM
SF-268 CNS
  TGI: > 31.6 µM
UACC-62 melanoma
  TGI: > 20 µM
SW-620 colon
  TGI: > 100 µM
HOP-62 NSCLC
  TGI: > 100 µM
MALME-3M melanoma
  TGI: > 100 µM
NCI-H23 lung
  TGI: > 100 µM
HS 578T breast
  TGI: > 100 µM
IGROV1 ovarian
  TGI: > 100 µM
SK-MEL-5 melanoma
  TGI: 2.33 µM
LOX IMVI melanoma
  TGI: > 100 µM
ACHN renal
  TGI: > 100 µM
HOP-92 NSCLC
  TGI: > 100 µM
A549 NSCLC
  TGI: > 100 µM
SF-295 CNS
  TGI: 0.532 µM
K-562 leukemia
  TGI: > 36 µM
U251 CNS
  TGI: > 100 µM
MDA-MB-231 breast
  TGI: > 100 µM
HL-60(TB) leukemia
  TGI: 1.26 µM
OVCAR-8 ovarian
  TGI: > 100 µM
CAKI-1 renal
  TGI: > 100 µM
EKVX NSCLC
  TGI: > 100 µM
SK-OV-3 ovarian
  TGI: > 100 µM
RPMI-8226 leukemia
  TGI: > 87.3 µM
SN12C renal
  TGI: > 100 µM
SK-MEL-28 melanoma
  TGI: > 100 µM
UACC-257 melanoma
  TGI: > 100 µM
HCC-2998 colon
  TGI: > 100 µM
PC-3 prostate
  TGI: > 100 µM
MOLT-4 leukemia
  TGI: > 100 µM
HT29 colon
  TGI: 0.662 µM
SK-MEL-2 melanoma
  TGI: 70.1 µM
COLO 205 colon
  TGI: 0.552 µM
KM12 colon
  TGI: 14.8 µM
OVCAR-4 ovarian
  TGI: > 96.2 µM
OVCAR-5 ovarian
  TGI: > 100 µM
A498 renal
  TGI: 1.49 µM
MCF7 breast
  TGI: > 100 µM
NCI-H226 lung
  TGI: > 100 µM
MDA-MB-435
  TGI: 0.5 µM
UO-31 renal
  TGI: 5.86 µM
NCI-H522 lung
  TGI: 30.1 µM
